In patent publication US11109593B2, “Isoxazolin-5-one derivative and herbicide containing same as active ingredient” (HOKKO CHEMICAL INDUSTRY CO., LTD., priority 2017, dated 2021):

What was measured:
[1] = test system: southern crabgrass; assay: Test Example 3: herbicidal effect test by treatment of dry field farming soil (one day after seeding); format: in vivo; details: 120 g/10a active ingredient, evaluated 14 days after treatment; for pest or weed control at 1200 g/ha: Digitaria ciliaris, 336 h, read-out: herbicidal rate, southern crabgrass
Outline: (§1)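 Herbicidal rate (%) equals 1 minus treated/untreated mean plant dry weight, times 100, taken 14 days after treatment in duplicate pots. Emulsion diluted in water was applied at 100 L per 10 ares (120 g a.i. per 10 ares) one day after sowing 20 seeds per species into the top 1 cm of alluvial soil.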

[2] = test system: Chenopodium album; assay: as above; format: in vivo; details: 120 g/10a active ingredient, evaluated 14 days after treatment; for pest or weed control at 1200 g/ha: Chenopodium album, 336 h, read-out: herbicidal rate, Chenopodium album
Outline: as §1

[3] = test system: Echinochloa crus-galli; assay: as above; format: in vivo; details: 120 g/10a active ingredient, evaluated 14 days after treatment; for pest or weed control at 1200 g/ha: Echinochloa crus-galli, 336 h, read-out: herbicidal rate, Echinochloa crus-galli
Outline: as §1

[4] = test system: Amaranthus viridis; assay: as above; format: in vivo; details: 120 g/10a active ingredient, evaluated 14 days after treatment; for pest or weed control at 1200 g/ha: Amaranthus viridis, 336 h, read-out: herbicidal rate, Amaranthus viridis
Outline: as §1

[5] = test system: southern crabgrass; assay: Test Example 4: herbicidal effect test by treatment of leave and stem in dry field farming (seven days after seeding); format: in vivo; details: 120 g/10a active ingredient, emulsion sprayed seven days after seeding, evaluated 14 days after treatment; for pest or weed control at 1200 g/ha: Digitaria ciliaris, 336 h, read-out: herbicidal effect (herbicidal rate), southern crabgrass
Outline: (§2)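 Weeds were seeded at 20 seeds per species into the top 1 cm of alluvial upland soil in pots, then sprayed 7 days after seeding with water-diluted emulsifiable concentrate at 100 L/10 a, giving 120 g active ingredient/10 a. Duplicate pots; herbicidal rate (%) was 14 days post-treatment, from dry weight versus untreated.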

[6] = test system: Chenopodium album; assay: as above; format: in vivo; details: 120 g/10a active ingredient, emulsion sprayed seven days after seeding, evaluated 14 days after treatment; for pest or weed control at 1200 g/ha: Chenopodium album, 336 h, read-out: herbicidal effect (herbicidal rate), Chenopodium album
Outline: as §2

[7] = test system: Echinochloa crus-galli; assay: as above; format: in vivo; details: 120 g/10a active ingredient, emulsion sprayed seven days after seeding, evaluated 14 days after treatment; for pest or weed control at 1200 g/ha: Echinochloa crus-galli, 336 h, read-out: herbicidal effect (herbicidal rate), Echinochloa crus-galli
Outline: as §2

[8] = test system: Amaranthus viridis; assay: as above; format: in vivo; details: 120 g/10a active ingredient, emulsion sprayed seven days after seeding, evaluated 14 days after treatment; for pest or weed control at 1200 g/ha: Amaranthus viridis, 336 h, read-out: herbicidal effect (herbicidal rate), Amaranthus viridis
Outline: as §2

[9] = test system: broad leaf weeds (Lindernia pyxidaria and Monochoria vaginalis); assay: Test Example 2: herbicidal effect test by treatment during growing period in paddy rice cultivation (seven days after seeding); format: in vivo; details: for pest or weed control at 1200 g/ha: 336 h
Outline: (§3)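 Herbicidal rate (%) = {1 − treated/untreated mean plant dry weight} × 100, assessed in duplicate 14 days post-treatment. Emulsion formulations were diluted in water and dropped onto flooded (about 3 cm) paddy pots 7 days after seeding, giving 120 g a.i. per 10 ares. Plants were grown in a glass greenhouse.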

[10] = test system: Scirpus juncoides; assay: as above; format: in vivo; details: for pest or weed control at 1200 g/ha: Schoenoplectiella juncoides, 336 h, read-out: herbicidal rate (%) Scirpus juncoides
Outline: as §3

[11] = test system: Echinochloa crus-galli; assay: as above; format: in vivo; details: for pest or weed control at 1200 g/ha: Echinochloa crus-galli, 336 h, read-out: herbicidal rate (%) Echinochloa crus-galli
Outline: as §3

[12] = test system: broad leaf weeds (Lindernia pyxidaria and Monochoria vaginalis); assay: Test Example 1: herbicidal effect test by treatment of rice paddy soil (immediately after seeding); format: in vivo; details: 120 g/10a active ingredient, dry weight vs untreated area, 14 days after treatment; for pest or weed control at 1200 g/ha: 336 h
Outline: (§4)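 Puddled, fertilized (N:P:K=17:17:17) paddy soil in Wagner pots; seeds sown 0–1 cm deep, flooded to about 3 cm. Emulsifiable formulations diluted in water and dropped into the water immediately after seeding at 120 g active ingredient per 10 ares; greenhouse. Herbicidal rate from dry weight vs untreated at 14 days.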

[13] = test system: Scirpus juncoides; assay: as above; format: in vivo; details: 120 g/10a active ingredient, dry weight vs untreated area, 14 days after treatment; for pest or weed control at 1200 g/ha: in Schoenoplectiella juncoides, 336 h, read-out: Herbicidal rate (%) Scirpus juncoides
Outline: as §4

[14] = test system: Echinochloa crus-galli; assay: as above; format: in vivo; details: 120 g/10a active ingredient, dry weight vs untreated area, 14 days after treatment; for pest or weed control at 1200 g/ha: in Echinochloa crus-galli, 336 h, read-out: Herbicidal rate (%) Echinochloa crus-galli
Outline: as §4

[15] = Lindernia pyxidaria, 120 g/10a active ingredient, assessed 14 days after treatment, dry weight vs untreated area, read-out: herbicidal rate (%) Lindernia pyxidaria
[16] = Monochoria vaginalis, 120 g/10a active ingredient, assessed 14 days after treatment, dry weight vs untreated area, read-out: herbicidal rate (%) Monochoria vaginalis
[17] = 120 g/10a active ingredient, assessed 14 days after treatment, dry weight vs untreated area
[18] = Monochoria vaginalis, read-out: Herbicidal rate (%) Monochoria vaginalis
[19] = in Lindernia, Lindernia pyxidaria, read-out: Herbicidal rate (%) Lindernia pyxidaria
[20] = 120 g/10a, rated 14 days after treatment, paddy soil pots

SMILES	pest or weed control at 1200 g/ha [1]	pest or weed control at 1200 g/ha [2]	pest or weed control at 1200 g/ha [3]	pest or weed control at 1200 g/ha [4]	melting point	pest or weed control at 1200 g/ha [5]	pest or weed control at 1200 g/ha [6]	pest or weed control at 1200 g/ha [7]	pest or weed control at 1200 g/ha [8]	pest or weed control at 1200 g/ha [9, 15]	pest or weed control at 1200 g/ha [9, 16]	pest or weed control at 1200 g/ha [10, 17]	pest or weed control at 1200 g/ha [11, 17]	pest or weed control at 1200 g/ha [12, 18]	pest or weed control at 1200 g/ha [12, 19]	pest or weed control at 1200 g/ha [13]	pest or weed control at 1200 g/ha [14]	herbicidal rate, southern crabgrass [1]	herbicidal rate, Chenopodium album [2]	herbicidal rate, Echinochloa crus-galli [3]	also measured
COCC(C)n1oc(=O)c(Cc2ccccc2NS(=O)(=O)C(F)(F)F)c1C (centres unmarked) [Compound 1-149, 1,1,1-trifluoro-N-[2-[[2-(2-methoxy-1-methyl-ethyl)-3-methyl-5-oxo-isoxazol-4-yl]methyl]phenyl]methanesulfonamide]	90%	40%	90%	40%	107 to 109 °C	90%	40%	90%	40%	90%	90%	90%	100%	90%	90%	90%	90%	–	–	–	–
CCC(C)n1oc(=O)c(Cc2ccccc2N(C(=O)OC)S(=O)(=O)C(F)(F)F)c1C (centres unmarked) [Compound 1-577, methyl N-[2-[(3-methyl-5-oxo-2-sec-butyl-isoxazol-4-yl)methyl]phenyl]-N-(trifluoromethylsulfonyl)carbamate]	90%	90%	90%	90%	75 to 80 °C	90%	40%	90%	40%	90%	90%	90%	90%	90%	90%	90%	90%	–	–	–	–
Cc1c(Cc2ccccc2N(S(=O)(=O)C(F)(F)F)S(=O)(=O)C(F)(F)F)c(=O)on1CC(C)C [Compound 1-967, 1,1,1-trifluoro-N-[2-[(2-isobutyl-3-methyl-5-oxoisoxazol-4-yl)methyl]phenyl]-N-(trifluoromethylsulfonyl)methanesulfonamide]	90%	40%	50%	80%	120 to 122 °C	0%	40%	60%	40%	100%	90%	80%	90%	100%	90%	90%	90%	–	–	–	–
Cc1c(Cc2ccccc2N(S(=O)(=O)C(F)(F)F)S(=O)(=O)C(F)(F)F)c(=O)on1C1CCCc2ccccc21 (centres unmarked) [Compound 1-1050]	–	–	–	–	–	–	–	–	–	–	–	–	–	–	–	–	–	90%	90%	100%	herbicidal rate, Amaranthus viridis [4]: 90%; herbicidal effect (herbicidal rate), southern crabgrass [5]: 40%; herbicidal effect (herbicidal rate), Chenopodium album [6]: 50%; herbicidal effect (herbicidal rate), Echinochloa crus-galli [7]: 50%; herbicidal effect (herbicidal rate), Amaranthus viridis [8]: 40%; Herbicidal rate (%) Lindernia pyxidaria ([9]; Lindernia pyxidaria, 120 g/10a active ingredient, assessed 14 days after treatment, dry weight vs untreated area): 100%; Herbicidal rate (%) Monochoria vaginalis ([9]; Monochoria vaginalis, 120 g/10a active ingredient, assessed 14 days after treatment, dry weight vs untreated area): 90%; Herbicidal rate (%) Scirpus juncoides [10, 17]: 90%; Herbicidal rate (%) Echinochloa crus-galli [11, 17]: 90%; Herbicidal rate (%) Lindernia pyxidaria ([12]; Lindernia pyxidaria): 100%; Herbicidal rate (%) Monochoria vaginalis ([12]; Monochoria vaginalis): 100%; Herbicidal rate (%) Scirpus juncoides [13]: 90%; Herbicidal rate (%) Echinochloa crus-galli [14]: 100%
Cc1ccc(S(=O)(=O)N(c2ccccc2Cc2c(C)n(C(C)C)oc2=O)S(=O)(=O)C(F)(F)F)cc1 [Compound 1-1127]	–	–	–	–	–	–	–	–	–	–	–	–	–	–	–	–	–	70%	60%	90%	herbicidal rate, Amaranthus viridis [4]: 40%; herbicidal effect (herbicidal rate), southern crabgrass [5]: 40%; herbicidal effect (herbicidal rate), Chenopodium album [6]: 40%; herbicidal effect (herbicidal rate), Echinochloa crus-galli [7]: 90%; herbicidal effect (herbicidal rate), Amaranthus viridis [8]: 40%; herbicidal rate, Lindernia pyxidaria ([9]; Lindernia pyxidaria, 120 g/10a, rated 14 days after treatment, paddy soil pots): 100%; herbicidal rate, Monochoria vaginalis ([9]; Monochoria vaginalis, 120 g/10a, rated 14 days after treatment, paddy soil pots): 100%; herbicidal rate, Scirpus juncoides [10, 20]: 90%; herbicidal rate, Echinochloa crus-galli [11, 20]: 100%; Herbicidal rate (%) Lindernia pyxidaria ([12]; Lindernia pyxidaria): 100%; Herbicidal rate (%) Monochoria vaginalis ([12]; Monochoria vaginalis): 100%; Herbicidal rate (%) Scirpus juncoides [13]: 90%; Herbicidal rate (%) Echinochloa crus-galli [14]: 100%
